Experimental data from paper PMC6628362, “A New Strategy for Glioblastoma Treatment: In Vitro and In Vivo Preclinical Characterization of Si306, a Pyrazolo[3,4-d]Pyrimidine Dual Src/P-Glycoprotein Inhibitor” (Cancers, 2019).
Read-outs that look alike come from different tables or passages of the source.

Assays:
U87 = assay: MTT cell growth inhibition, U87; assay type: cell-based, Human; conditions: 72 h, n = 3
Method: (§1) Human GBM cell lines U87 and LN-229 were purchased from the American Type Culture Collection, Rockville, MD, USA. U87-TxR cells were selected from U87 cells by continuous exposure to increasing concentrations of PTX [76]. LN-299, U87 and U87-TxR cells were grown in Minimum Essential Medium with 10% fetal bovine serum, 2 mM L-glutamine and 5000 U/mL penicillin, 5 mg/mL streptomycin solution. Cell lines were maintained at 37 °C in a humidified 5% CO2 atmosphere. They were sub-cultured at 72 h intervals using 0.25% trypsin/EDTA and 16,000 cells/cm^2 were seeded into a fresh medium.
(§2) MTT assay was used to assess the viability of U87 and U87-TxR cells (AppliChem GmbH, Taufkirchen, Germany). After reaching the confluence in 25 cm^2 tissue flasks, U87 and U87-TxR cells were trypsinized. Cells were seeded at the optimal density determined in initial experiments: 4000 cell/well into flat-bottomed 96-well tissue culture plates. Following the overnight incubation, cells were treated with Si306, pro-Si306 and dasatinib (1–25 µM) for 72 h. In addition, the combined effects of Si306 and pro-Si306 with PTX were evaluated in MDR GBM cells. To that end, two concentrations of Si306 and pro-Si306 (0.2 μM and 0.5 μM) were combined with increasing concentrations of PTX (0.1–2 μM) in simultaneous treatment. The sensitization of U87-TxR cells to PTX was studied after 72 h. Briefly, MTT was added to each well in a final concentration of 0.2 mg/mL for 4 h to induce the formation of the formazan in cells with intact/viable mitochondria. Then, produced formazan was dissolved in DMSO, and the absorbance was measured at 540 nm on a microplate reader (LKB 5060-006 Micro Plate Reader, Vienna, Austria). IC50 values were calculated by nonlinear regression analysis using GraphPad Prism 6.0 for Windows (GraphPad Software, La Jolla, CA, USA).

U87-TxR = assay: MTT cell growth inhibition, MDR U87-TxR; assay type: cell-based, Human; conditions: 72 h, n = 3
Method: as §1, §2

T98G = assay: Cell viability, T98G (Table S1); assay type: cell-based; conditions: Homo sapiens, 72 h
Method: 1. Cell Growth Inhibition by Dasatinib, Si306 and Pro-Si306
GB cell lines BT138, T98G and A172 were treated with Si306 and pro-Si306 at concentrations ranging from 1 to 100 µM, or with DMSO as a control. Cell viability was evaluated 72 h after treatment for T98G and A172 cell lines and after 24 h for BT-138. In table S1 the IC50 values are reported.
Table S1. Sensitivity of glioblastoma multiforme (GBM) cells to Si306 and pro-Si306 expressed as IC50 […]
Figure S1. Rho 123 accumulation in U87-TxR cells treated with increasing concentrations of TQ (A), Dex-VER (B), Si306 (C) and pro-Si306 (D).
(1 picture or pasted object on this page, not shown here)

U87-TxR cells = assay: Reversal of paclitaxel resistance, MTT combination treatment; assay type: cell-based, Human; conditions: 0.2 µM of the compound, 72 h
Method: as §2

[1] = Brain and tissue distribution of Si306 in mice; assay type: in vivo, BALB/C mice; conditions: for Tmax / Kp / AUC(0-inf) / Cmax / half-life / AUC(0-t) / MRT inf: male, BALB/C, mouse; for Tmax / AUC(0-inf) / Cmax / half-life / AUC(0-t) / MRT inf: brain; for Kp: brain/plasma, read-out: AUC brain to plasma ratio; for AUC(0-t): read-out: AUC 0→24 h; for MRT inf: read-out: MRT 0→∞
Text: Naive male BALB/C mice (weight 20 ± 2 g) were ordered from Charles River (Milan, Italy). All animals were pathogen free and approximately 4–6 weeks old when they arrived. The adaption period to the environment was not less than seven days. All the procedures used on animals in this study were approved by Institutional Animal Use and Care Committee at Università Cattolica del S. Cuore, Rome and Università degli Studi di Siena and authorized by the Italian Ministry of Health, according to Legislative Decree 116/92, which implemented the European Directive 86/609/EEC on laboratory animal protection in Italy. Methods for all the conducted experiments were performed in accordance with regulations, standards and guidelines of the Animal Use and Care Committee of Università Cattolica del S. Cuore, Rome and Università degli Studi di Siena.
Si306 was dissolved in a mixture of Tween80 (10% v/v), benzyl alcohol (1% v/v) and a 10 mM solution of citric acid. The compound was administered intravenously as a single dose of 25 mg/kg in 200 μL of volume. At several time points (0.08, 0.25, 0.5, 1, 2, 4, 8, 24 h), after drug administration, mice were treated i.p. with heparin (5000 U/kg) and sacrificed under CO2. Five animals were used for each time point. Blood, brain, liver and kidneys were collected for the following quantitative analysis. Approximately 500–600 μL of blood was collected from each animal and transferred to a tube containing 10 μL of heparin and mixed briefly.
For the oral PK studies, mice received a single dose of 50 mg/kg of Si306 (dissolved in the same vehicle used for i.v. studies) in 400 μL of final volume by gavage. At nine time-points (0.25, 0.5, 1, 1.5, 2, 3, 4, 8, 24 h) after administration, mice were sacrificed under CO2. Blood and organs were collected and analyzed by LC-MS. The pharmacokinetic parameters, including area under concentration-time curve (AUC), maximum plasma concentration (Cmax), half-time (t1/2), apparent volume of distribution (V), plasma clearance (CL) and mean residence time (MRT), were calculated by non-compartmental analysis using PKSolver software (ver. 1.0, Nanjing, China).
Blood samples were centrifuged at 5000 rpm for 20 min to separate the plasma fraction, which was subsequently collected in a test tube. Acetonitrile (1 mL, with Si34 as internal standard at the concentration of 5 μg/mL) was added to each sample to denature proteins. Samples were centrifuged at 5000 rpm for 20 min, and the supernatant was recovered, dried under vacuum, solubilized again in methanol (100 μL), and analyzed. Brain and the other organs were homogenized using a T10 basic ULTRA-TURRAX® homogenizer (Bioclass, Pistoia, Italy); in order to extract the compound from the tissue, acetonitrile internal standard solution was added, and the homogenate was centrifuged at 5000 rpm for 20 min. The supernatant was recovered, filtered and analyzed by LC-MS. The quantification of each compound was performed by reference to the appropriate calibration curve. Representative LC-MS chromatograms for Si306 and for Si34 are reported in Figure S2 and Figure S3 respectively.

Compound: ClC(Cn1ncc2c(Nc3cccc(Br)c3)nc(SCCN3CCOCC3)nc21)c1ccccc1 (stereo not shown) [Si306]
- IC50 (U87): 3.08 ± 0.26 µM
- IC50 (U87; Homo sapiens, U-87 MG): ~3 µM
- IC50 (U87-TxR): 4.78 ± 0.322 µM
- IC50 (U87-TxR; Homo sapiens, U87-TxR): 4.8 µM
- IC50 (T98G): 0.46 ± 0.02 µM
- Relative Reversal of PTX resistance (U87-TxR cells): 1.16 ^ns
- maximum concentration into the brain ([1]; i.v., 25 mg/kg): 2.94 µg/g
- Tmax ([1]; iv, 25 mg/kg, i.v., 25 mg/kg, read-out: Tmax): 4.8 min
- Tmax ([1]; iv, 25 mg/kg, i.v., 25 mg/kg, read-out: time of maximum concentration into the brain (converted)): 5 min
- Tmax ([1]; po, 50 mg/kg, p.o., 50 mg/kg, read-out: Tmax): 30 min
- Tmax ([1]; po, 50 mg/kg, p.o., 50 mg/kg, read-out: time of maximum concentration into the brain (converted)): 30 min
- Kp ([1]; iv, 25 mg/kg): 0.095
- Kp ([1]; oral route, 50 mg/kg): 1.19
- AUC(0-inf) ([1]; iv, 25 mg/kg): 2150 ng·h/mL
- Cmax ([1]; iv, 25 mg/kg): 2940 ng/g
- half-life ([1]; iv, 25 mg/kg): 158 min
- AUC(0-t) ([1]; iv, i.v., 25 mg/kg): 2140 ng·h/mL
- MRT inf ([1]; iv, i.v., 25 mg/kg): 88.8 min
- AUC(0-inf) ([1]; po, 50 mg/kg): 18000 ng·h/mL
- Cmax ([1]; po, 50 mg/kg): 10600 ng/g
- half-life ([1]; po, 50 mg/kg): 126 min
- AUC(0-t) ([1]; po, p.o., 50 mg/kg): 18000 ng·h/mL
- MRT inf ([1]; po, p.o., 50 mg/kg): 72 min
- AUC brain/plasma, fold higher p.o. with respect to i.v. ([1]; p.o. 50 mg/kg vs i.v. 25 mg/kg): 12 fold
- maximum concentration into the brain ([1]; p.o., 50 mg/kg): 10.65 µg/g
